Measurements published in patent US9782397B2, “Treatment of corneal neovascularization” (IRBM SCIENCE PARK S.P.A., priority 2011, dated 2017).
Entries after “also recorded” stand apart in the source; their conditions may differ. Ends that are not written are not given here.

What was measured:
[1] = test system: corneal neovascularization; assay: Alkali burn (sodium hydroxide caustication) neovascularization model; type: in vivo, C57Bl/6 mice; conditions: for corneal perforation / corneal transparency / incidence of symblepharon and ankyloblepharon / lid anatomy: topical treatment of ocular burns, Examples 4-6
Protocol: Prior to pellet implantation or caustication, animals were anesthetized by intraperitoneal injection of ketamine (120 mg/kg) and xylazine (20 mg/kg) before any surgery.
In fact, the Alkali burn model is considered an inflammation-driven model of neovascularisation, whereby a reduction in inflammatory cell influx is associated with clinical improvement.
Mice were anesthetized by intraperitoneal injection of ketamine (120 mg/kg) and xylazine (20 mg/kg) before any surgery. A 2-mm disc of filter paper saturated with 1 N NaOH was placed onto the right cornea of each mouse for 40 seconds, followed by rinsing extensively with phosphate-buffered saline (PBS) for 2 minutes.
(§1) After taking photographs under the slit lamp, five mice per group were sacrificed 7 days after b-FGF micropellet implantation or caustication, and freshly enucleated eyes were prepared into corneal flat mounts. Immunohistochemical staining was performed with FITC-conjugated CD31/PECAM-1 (rat-anti-mouse antibody; 1:100; Santa Cruz Biotechnology, Santa Cruz, Calif.). Images were taken at 40×, 400× and 600× magnification. To quantify the blood vessels, corneal whole-mounts were covered with mounting medium (Vector, Burlingame, Calif.) and examined by an epifluorescent microscope. For toxicity studies, mice were examined at the slit lamp daily. Animals were sacrificed seven days later and eye bulbs were removed, fixed in 4% paraformaldehyde, cross-sectioned and stained with standard hematoxylin-eosin. At least three to five different corneas were examined; representative data are presented.
(§2) Both slit-lamp and fluorescence microscopy pictures were qualitatively compared for the amount of corneal neovascularization. Gross anatomical alterations such as disruption of epithelial layer, inflammatory cell infiltration, or endothelial cell loss were searched in hematoxylin-eosin cross sections.
Male 6- to 8-week-old C57Bl/6 mice were treated to induce neovascularization using sodium hydroxide caustication (see Experimental Methods)
5 mice per group were used. After taking photographs at the slit lamp, mice were sacrificed. Immunohistochemical staining was performed with FITC-conjugated CD31/PECAM-1 to reveal corneal neovessels.
Lanepitant (WO9907681) was dissolved in PBS. It was administered topically to the eye with the following dose regimen after alkali burn induced neovascularization of the cornea: • 0.4 mg/ml, 6 times a day for 4 days, starting on the day of the tissue injury (“Day 0” to “Day 3”). • 1.6 mg/ml, 6 times a day for 4 days, starting on the day of the tissue injury (“Day 0” to “Day 3”). • 6.4 mg/ml, 6 times a day for 4 days, starting on the day of the tissue injury (“Day 0” to “Day 3”). • PBS Control, 6 times a day for 4 days, starting on the day of the tissue injury (“Day 0” to “Day 3”).
Three mice (for a total of 6 eyes) were treated in each experimental group.
On Day 4, After taking photographs at the slit lamp, mice were sacrificed. Immunohistochemical staining was performed with FITC-conjugated CD31/PECAM-1 to reveal corneal neovessels (FIG. 4A). Following alkali burn, neovessels are expected to grow from the periphery towards the center of the cornea. The extent of the neovascularization is then evaluated. Briefly, corneas were excised, fixed and stained with FITC-conjugated CD31/PECAM-1 to reveal corneal neovessels. […] The neovascular area was then calculated by measuring the Neovascular Area Index (NV Index). This was obtained by calculating the ratio of the neovascular area—obtained by joining together the inner tip of the neovessels—and the total surface of the cornea (i.e. the total area of the cornea).
Befetupitant (WO020008232) was dissolved in DMSO (Dimethyl SulfOxyde).

[2] = test system: corneal neovascularization; assay: as above; type: in vivo, C57Bl/6 mice
[3] = test system: CNV; conditions: in vivo; cited from earlier work
[4] = test system: CNV; conditions: humans, topical administration; cited from earlier work
[5] = test system: corneal neovascularization; assay: b-FGF pellet implantation angiogenesis model (mouse corneal micropocket); type: in vivo, C57Bl/6 mice; conditions: 1 mg/ml topical, 4 times per day for 1 week
Protocol: Male 6- to 8-week-old C57Bl/6 mice (Taconic Farms, Germantown, N.Y.) were used in experiments for Examples 1 to 3. Male 6- to 8-week-old C57Bl/6 mice (Charles River Lab, Calco, Milan, Italy) were used in experiments for Examples 4-6. Prior to pellet implantation or caustication, animals were anesthetized by intraperitoneal injection of ketamine (120 mg/kg) and xylazine (20 mg/kg) before any surgery.
b-FGF Pellet Implantation Angiogenesis Model
This model was employed to assess the effect of pharmaceutically active substances on the angiogenesis component of CNV.
Sustained release b-FGF micropellets (40 ng/pellet) were prepared as described in Azar D T, Am Ophthalmol Soc 2006; 104:264-302.
Briefly, the pellets were implanted through half thickness linear incisions at the center of cornea using a disposable 30 degrees microknife (F.S.T., Foster City, Calif., USA). Lamellar pocket incisions were then made parallel to the corneal plane using a Von Graefe knife (F.S.T., Foster City, Calif., USA) and advanced to the temporal limbus at lateral canthal area. The pellets were positioned into the pocket 1.0 mm apart from the limbal vascular arcade in temporal side, and tetracycline ophthalmic ointment was applied to the eye after pellet implantation to prevent post surgical infections.
as §1
as §2, with “sections. […]” for “sections.”
Following b-FGF pellet implantation, neovessels are expected to grow from the limbal vessels (i.e. from the periphery of the cornea), towards the pellet, which is placed in the avascular cornea. The extent of neovascularisation is then evaluated.

[6] = test system: healthy cornea; assay: Toxicity following topical application in healthy eyes; type: in vivo, C57Bl/6 mice
Protocol: as §1, §2
Fosaprepitant toxicity was tested on the healthy cornea by administering to 3 healthy C57Bl/6 mice fosaprepitant (purchased from Universal Drug Store, Canada and diluted as per technical sheet instructions with 0.9% NaCl solution to reach a final concentration of 1 mg/ml) at the concentration of 1 mg/ml in the conjunctival sac 4 times per day for 1 week. In vivo corneal biomicroscopy imaging and hematoxylin eosin ocular cross sections were checked as markers for toxicity.

[7] = test system: growth of capillary vessels; conditions: slow release pellets in avascular cornea of rabbits; cited from earlier work
[8] = test system: endothelial cells; conditions: in vitro; cited from earlier work
[9] = increasing dose 0.4, 1.6, 6.4 mg/ml topical, 6 times a day for 4 days, Day 4
[10] = 1 mg/ml topical, 4 times per day for 1 week, versus placebo

Molecule: Cc1ccccc1-c1cc(N2CCOCC2)ncc1N(C)C(=O)C(C)(C)c1cc(C(F)(F)F)cc(C(F)(F)F)c1 [befetupitant]
- Corneal Neovascular Index ([1]; 0.4 mg/ml topical, 3 times a day for 9 days, compared to vehicle (DMSO)): statistically significant reduction
- corneal perforation [1]: reduced
- corneal transparency [1]: increased
- incidence of symblepharon and ankyloblepharon [1]: reduced
- lid anatomy [1]: appeared better preserved
- Corneal Neovascular Index ([2]; 1.6 mg/ml topical, 3 times a day for 9 days, compared to vehicle (DMSO)): statistically significant reduction
- corneal neovessels (CD31/PECAM-1) ([2]; increasing doses 0.4, 1.6 mg/ml in DMSO, topical, 3 times a day for 9 days, day 9): reduced; also recorded: reduces corneal neovascularization

Molecule: CC(=O)OCC(=O)[C@@]1(O)CC[C@H]2[C@@H]3CCC4=CC(=O)CC[C@]4(C)C3=CC[C@@]21C [anecortave acetate]
- efficacy in animal models of CNV [3]: effective

Molecule: COc1ccccc1CN(C[C@@H](Cc1c[nH]c2ccccc12)NC(=O)CN1CCC(N2CCCCC2)CC1)C(C)=O [lanepitant]
- Neovascular Area Index (NV Index) ([1]; 6.4 mg/ml topical, 6 times a day for 4 days, compared to vehicle): statistically significant reduction
- anatomy of the eyelids ([1]; 0.4, 1.6, 6.4 mg/ml topical, 6 times a day for 4 days, Day 4, versus vehicle): appeared better preserved
- corneal transparence ([1]; increasing dose 0.4, 1.6, 6.4 mg/ml topical, 6 times a day for 4 days from day of injury, Day 4, versus vehicle (PBS)): increased corneal transparence
- Neovascular Area Index (NV Index) [1, 9]: progressively reduced
- corneal neovessels (CD31/PECAM-1) [1, 9]: progressively reduced; also recorded: reduces corneal neovascularization
- effect on neovascularization compared to the same dose administered after the tissue injury ([1]; pre-treatment 1.6 mg/ml versus 1.6 mg/ml started on day of injury): increased effect
- corneal perforation [1]: reduced
- corneal transparency [1]: increased
- incidence of symblepharon and ankyloblepharon [1]: reduced
- lid anatomy [1]: appeared better preserved
- Cornea Neovascular Index ([2]; pre-treatment: 1.6 mg/ml topical, 6 times a day from before the injury through Day 3, day 4): statistically significant reduction
- corneal neovascularization ([2]; pre-treatment: 1.6 mg/ml topical, 6 times a day from before the injury through Day 3, day 4, versus vehicle): appeared reduced; also recorded: reduces corneal neovascularization

Molecule: bevacizumab: anti-VEGF monoclonal antibody
- inhibiting CNV [4]: some effect

Molecule: C[C@@H](O[C@H]1OCCN(Cc2nc(O)n(P(=O)(O)O)n2)[C@H]1c1ccc(F)cc1)c1cc(C(F)(F)F)cc(C(F)(F)F)c1 [fosaprepitant, [3-{[(2R,3S)-2-[(1R)-1-[3,5-bis(trifluoromethyl)phenyl]ethoxy]-3-(4-fluorophenyl)morpholin-4-yl]methyl}-5-oxo-2H-1,2,4-triazol-1-yl]phosphonic acid]
- area of normally avascular cornea invaded by neovessels [1, 10]: smaller
- length of the vessels ([5]; slit lamp, 7 days after implantation): appeared reduced
- area of normally avascular cornea invaded by neovessels ([5]; versus placebo): smaller
- density of vascular ramifications (number of vascular branches per surface unit) ([5]; versus placebo): reduced
- corneal neovascularization (slit lamp, CD31/PECAM-1 whole mounts) ([5]; conjunctival sac, 7 days after implantation, versus placebo (PBS)): less neovascularization; also recorded: reduces corneal neovascularization
- corneal neovascularization (slit lamp, epifluorescent microscopy) ([2]; 1 mg/ml topical, 4 times per day for 1 week, 7 days after caustication, versus placebo (PBS)): remarkably reduced; also recorded: reduces corneal neovascularization
- density of vascular ramifications (number of vascular branches per surface unit) [2, 10]: reduced
- corneal transparency ([2]; 1 mg/ml topical, 4 times per day for 1 week, versus placebo-treated corneas): much improved
- alteration of corneal epithelium, stroma or endothelium at slit lamp observation ([6]; 1 mg/ml topical, 4 times per day, up to 7 days, healthy corneas): No alteration
- hematoxylin-eosin staining of eyeball cross-sections (epithelium, stroma, endothelium) ([6]; 1 mg/ml topical, 4 times per day, 7 days): no anatomical alteration was detected
- toxicity to the cornea ([6]; topical application (FIG. 3)): not toxic

Molecule: Substance P: C-amidated decapeptide of the tachykinin family; principal receptor NK-1 (RPKPQQFFGLM-NH2; UniProt P20366 58-68, looked up)
- vessel growth in the cornea [7]: induced a marked neovascularization
- proliferation of endothelial cells [8]: increased proliferation
